# Tests used:
# Experiment in all cases: MIC by micro broth dilution
# Type in all cases: cell-based
# A. baumannii ATCC 1906 = conditions: for MIC: Acinetobacter baumannii, ATCC1906, read-out: Minimum inhibitory concentration (MIC)
# Procedure: (§1) MIC of DART molecules were determined by micro broth dilution as per CLSI guidelines. Bacterial strains were cultured in Brain Heart Infusion Agar (BHIA) at 37° C. for 24 h. For MIC determination, BHI broth (100 μl) was added to each of the wells of a 96 well plate. 100 μl of broth containing drug was added to the first well (1A to 1H) and thereafter serial (double) dilutions were carried out for up to 10 wells (column 1 to column 10 of the 96 well plate). Bacterial inoculum was prepared by adjusting the bacterial culture turbidity to 0.5 McFarland standard (approximately 1.5×10^8 cells/ml) and further diluted (100 times with sterile BHI broth). Diluted bacterial suspension (100 μl) was added to each well except sterility control wells (column 12 of 96 well plate). The plates were incubated at 37° C. for 24 h. The MIC of the test compound was measured after addition of Alamar blue dye.
# A. baumannii CCARM 12001 = conditions: for MIC: Acinetobacter baumannii, CCARM12001, read-out: Minimum inhibitory concentration (MIC)
# Procedure: as §1
# A. baumannii CCARM 12020 = conditions: for MIC: Acinetobacter baumannii, CCARM12020, read-out: Minimum inhibitory concentration (MIC)
# Procedure: as §1
# E. aerogenes M2-1 = conditions: for MIC: Klebsiella aerogenes, M21, read-out: Minimum inhibitory concentration (MIC)
# Procedure: as §1
# E. aerogenes NCIM 5139 = conditions: for MIC: Klebsiella aerogenes, NCIM5139, read-out: Minimum inhibitory concentration (MIC)
# Procedure: as §1
# E. coli BAA 196 = conditions: for MIC: Escherichia coli, BAA196, read-out: Minimum inhibitory concentration (MIC)
# Procedure: as §1
# E. coli MTCC 1687 = conditions: for MIC: Escherichia coli, MTCC1687, read-out: Minimum inhibitory concentration (MIC)
# Procedure: as §1
# E. faecium NCIM 5421 = conditions: for MIC: Enterococcus faecium, NCIM5421, read-out: Minimum inhibitory concentration (MIC)
# Procedure: as §1
# P. aeruginosa ATCC 27853 = conditions: for MIC: Pseudomonas aeruginosa, ATCC27853, read-out: Minimum inhibitory concentration (MIC)
# Procedure: as §1
# P. aeruginosa CCARM 2161 = conditions: Pseudomonas aeruginosa, CCARM2161, read-out: Minimum inhibitory concentration (MIC)
# Procedure: as §1
# P. aeruginosa CCARM 2204 = conditions: Pseudomonas aeruginosa, CCARM2204, read-out: Minimum inhibitory concentration (MIC)
# Procedure: as §1
# S. aureus ATCC 43300 = conditions: S. aureus ATCC 43300; for MIC: Staphylococcus aureus, ATCC43300, read-out: Minimum inhibitory concentration (MIC)
# Procedure: as §1
# S. aureus CCARM 3505 = conditions: for MIC: Staphylococcus aureus, CCARM3505, read-out: Minimum inhibitory concentration (MIC)
# Procedure: as §1
# S. aureus MTCC 6908 = conditions: for MIC: Staphylococcus aureus, MTCC6908, read-out: Minimum inhibitory concentration (MIC)
# Procedure: as §1
# [1] = test system: S. epidermidis ATCC 35984; conditions: for MIC: Staphylococcus epidermidis, ATCC35984, read-out: Minimum inhibitory concentration (MIC)
# Procedure: as §1
# S. epidermidis S12-1 = conditions: for MIC: Staphylococcus epidermidis, S121, read-out: Minimum inhibitory concentration (MIC)
# Procedure: as §1
# K. pneumonia ATCC 13883 = conditions: for activity in words: Klebsiella pneumonia (susceptible); for MIC: Klebsiella pneumoniae, ATCC13883, read-out: Minimum inhibitory concentration (MIC)
# Procedure: as §1
MIC (A. baumannii ATCC 1906) [µg/mL],MIC (A. baumannii CCARM 12001) [µg/mL],MIC (A. baumannii CCARM 12020) [µg/mL],MIC (E. aerogenes M2-1) [µg/mL],MIC (E. aerogenes NCIM 5139) [µg/mL],MIC (E. coli BAA 196) [µg/mL],MIC (E. coli MTCC 1687) [µg/mL],MIC (E. faecium NCIM 5421) [µg/mL],MIC (P. aeruginosa ATCC 27853) [µg/mL],MIC (P. aeruginosa CCARM 2161) [µg/mL],MIC (P. aeruginosa CCARM 2204) [µg/mL],MIC (S. aureus ATCC 43300) [µg/mL],MIC (S. aureus CCARM 3505) [µg/mL],MIC (S. aureus MTCC 6908) [µg/mL],MIC [1] [µg/mL],MIC (S. epidermidis S12-1) [µg/mL],MIC (K. pneumonia ATCC 13883; K. pneumonia ATCC 13883) [µg/mL],Structure (SMILES),activity in words (K. pneumonia ATCC 13883),also measured
> 16,> 16,> 16,> 16,> 16,16,16,> 16,> 16,> 16,> 16,1,32,1.5,0.13,> 64,,Cc1ncc([N+](=O)[O-])n1CC(O)CN1CCN(c2cc3c(cc2F)c(=O)c(C(=O)O)c2n3C(C)S2)CC1 (stereo not drawn) [Compound 1],,
8,,,4,4,16,1,0.25,8,,,< 0.13,4,0.1,< 0.03,4,0.25,"CC1Sc2c(C(=O)O)c(=O)c3cc(F)c(N4CCN(CC(=O)Nc5ncc([N+](=O)[O-])s5)CC4)cc3n21 (stereo not drawn) [Compound 6, 6-Fluoro-1-methyl-7-(4-(2-((5-nitrothiazol-2-yl)amino)-2-oxoethyl)piperazin-1-yl)-4-oxo-1H,4H-[1,3]-thiazeto[3,2-a]quinoline-3-carboxylic acid]",active,
,,,,,,,,,,,,,,,,,O=C(N[C@@H]1CCCCN(c2c(F)cc3c(=O)c(C(=O)O)cn(C4CC4)c3c2Cl)C1)c1ccc([N+](=O)[O-])o1 [Compound 16],active,Minimum inhibitory concentration (MIC) (A. baumannii ATCC 1906): .05 µg/mL; Minimum inhibitory concentration (MIC) (A. baumannii CCARM 12001): 16 µg/mL; Minimum inhibitory concentration (MIC) (A. baumannii CCARM 12020): >16 µg/mL; Minimum inhibitory concentration (MIC) (E. aerogenes M2-1): 4 µg/mL; Minimum inhibitory concentration (MIC) (E. aerogenes NCIM 5139): 2 µg/mL; Minimum inhibitory concentration (MIC) (E. coli BAA 196): >16 µg/mL; Minimum inhibitory concentration (MIC) (E. coli MTCC 1687): 4 µg/mL; Minimum inhibitory concentration (MIC) (E. faecium NCIM 5421): 0.12 µg/mL; Minimum inhibitory concentration (MIC) (K. pneumonia ATCC 13883; K. pneumonia ATCC 13883): 0.25 µg/mL; Minimum inhibitory concentration (MIC) (P. aeruginosa ATCC 27853): 2 µg/mL; Minimum inhibitory concentration (MIC) (S. aureus ATCC 43300): <0.01 µg/mL; Minimum inhibitory concentration (MIC) (S. aureus CCARM 3505): 0.5 µg/mL; Minimum inhibitory concentration (MIC) (S. aureus MTCC 6908): 0.25 µg/mL; Minimum inhibitory concentration (MIC) [1]: <0.03 µg/mL; Minimum inhibitory concentration (MIC) (S. epidermidis S12-1): 0.13 µg/mL
1,,,> 16,0.25,> 4,> 4,0.5,> 16,> 16,> 16,1,> 4,1,0.25,> 16,0.12,"CC1Sc2c(C(=O)O)c(=O)c3cc(F)c(N4CCN(Cc5nc6ccc([N+](=O)[O-])cc6[nH]5)CC4)cc3n21 (stereo not drawn) [Compound 18, 6-Fluoro-1-methyl-7-(4-((6-nitro-1H-benzo[d]imidazol-2-yl)methyl)piperazin-1-yl)-4-oxo-1H,4H-[1,3]thiazeto[3,2-a]quinoline-3-carboxylic acid]",active,
8,,,4,0.5,> 16,1,1,4,,,0.5,> 16,8,0.13,> 16,0.25,"CC1Sc2c(C(=O)O)c(=O)c3cc(F)c(N4CCN(Cc5nc6ccc(N)cc6[nH]5)CC4)cc3n21 (stereo not drawn) [Compound 20, 7-(4-((6-Amino-1H-benzo[d]imidazol-2-yl)methyl)piperazin-1-yl)-6-fluoro-1-methyl-4-oxo-1H,4H-[1,3]thiazeto[3,2-a]quinoline-3-carboxylic acid]",active,
16,> 16,> 16,16,16,> 16,8,0.25,16,> 16,> 16,0.13,> 16,0.25,< 0.03,> 16,0.5,"CC1Sc2c(C(=O)O)c(=O)c3cc(F)c(N4CCN(Cc5nc6cc(Cl)c(Cl)cc6[nH]5)CC4)cc3n21 (stereo not drawn) [Compound 21, 7-(4-((5,6-Dichloro-1H-benzo[d]imidazol-2-yl)methyl)piperazin-1-yl)-6-fluoro-1-methyl-4-oxo-1H,4H-[1,3]thiazeto[3,2-a]quinoline-3-carboxylic acid]",active,
2,,,8,1,4,2,0.06,8,,,0.25,16,0.5,0.13,8,0.12,"CC1Sc2c(C(=O)O)c(=O)c3cc(F)c(N4CCN(C(=O)c5ccccn5)CC4)cc3n21 (stereo not drawn) [Compound 31, 6-Fluoro-1-methyl-4-oxo-7-(4-picolinoylpiperazin-1-yl)-1H,4H-[1,3]thiazeto[3,2-a]quinoline-3-carboxylic acid]",active,
2,> 16,> 16,16,16,8,4,,16,> 16,> 16,0.06,8,0.5,0.13,4,0.5,"CC1Sc2c(C(=O)O)c(=O)c3cc(F)c(N4CCN(C(=O)c5cccc(Br)n5)CC4)cc3n21 (stereo not drawn) [Compound 32, 7-(4-(6-Bromopicolinoyl)piperazin-1-yl)-6-fluoro-1-methyl-4-oxo-1H,4H-[1,3]thiazeto[3,2-a]-quinoline-3-carboxylic acid]",active,
16,> 16,> 16,1,1,> 16,0.5,> 16,4,,> 16,4,> 16,8,4,> 16,0.12,"CC1Sc2c(C(=O)O)c(=O)c3cc(F)c(N4CCN(C(=O)NC(=N)N)CC4)cc3n21 (stereo not drawn) [Compound 44, 7-(4-(Carbamimidoylcarbamoyl)piperazin-1-yl)-6-fluoro-1-methyl-4-oxo-1H,4H-[1,3]thiazeto[3,2-a]quinoline-3-carboxylic acid]",,
